# Source: article PMC11520566, “Discovery of pyrazole-based analogs as CDK2 inhibitors with apoptotic-inducing activity: design, synthesis and molecular dynamics study” (RSC Advances, 2024)
# Assays:
# MCF7 = assay: NCI 60 five dose assay, Breast cancer; assay type: cell-based, human
# CDK2/cyclin A2 = target: T1, CDK2/cyclin A2 (Homo sapiens, UniProt P24941); assay: In vitro CDK2/cyclin A2 enzyme inhibition assay (ADP-Glo); assay type: biochemical
# T1 construct: purchased Promega
# Protocol: The studied pyrazoles 2a–g, 4, 7a–d, 8a and b, 9, and 10 were assessed for their in vitro CDK2/cyclin A2 enzyme inhibition assay at a concentration of 50 μM using the Promega CDK2/cyclinA2 kinase enzyme system coupled with the ADP-Glo assay.[32,33] The percentage enzyme activity was the lowest for five compounds, namely 4, 7a, 7d, 8a, and 9 with values of 24.7%, 17.5%, 11.5%, 27.1% and 14.5%, respectively.
# The in vitro assay of CDK2/cyclin A2 protein kinase was carried out on all the synthesized compounds. The kinase assay was performed in a 96-well white plate with a reaction volume of […]. The reaction was performed in four steps as follows: 2.5 μL of the test compounds or 5% DMSO and 5 μL of CDK2/cyclin A2 enzyme (1.6 ng) was added, and then incubated at room temperature for 30 min. Then, 5 μL of 50 μM ATP. 0.1 μg μL^−1 histone H1 was added and incubated for 10 min. The reaction was stopped by adding 12.5 μL of ADP-Glo™ Reagent and incubated for 40 min. Then 25 μL of kinase detection reagent was added to each well and incubated for 60 min before detection with luminescence (Integration time 0.5–1 s).[25,32,33]
# UACC-62 = assay: NCI 60 five dose assay, Melanoma; assay type: cell-based, human
# RPMI-8226 = assay: NCI 60 five dose assay, Leukemia; assay type: cell-based, human
# HOP-92 = assay: NCI 60 five dose assay, Non-small cell lung cancer; assay type: cell-based, human
# MDA-MB-231/ATCC = assay: NCI 60 five dose assay, Breast cancer; assay type: cell-based, human
# NCI-H460 = assay: NCI 60 five dose assay, Non-small cell lung cancer; assay type: cell-based, human
# SN12C = assay: NCI 60 five dose assay, Renal cancer; assay type: cell-based, human
# CCRF-CEM = assay: NCI 60 five dose assay, Leukemia; assay type: cell-based, human
# SK-MEL-2 = assay: NCI 60 five dose assay, Melanoma; assay type: cell-based, human
# NCI-H23 = assay: NCI 60 five dose assay, Non-small cell lung cancer; assay type: cell-based, human
# UACC-257 = assay: NCI 60 single dose screen, Melanoma; assay type: cell-based, human; settings: single dose 10 μM
# Protocol: The newly synthesized pyrazoles 2a–g, 7a–d, 8a and b, 9, and 10 were submitted to the National Cancer Institute (NCI) Developmental Therapeutics Program (http://www.dtp.nci.nih.gov) for assessment of their potential antiproliferative activity against a panel of NCI 60 cancer cell lines. All compounds were approved for screening against the approved 60 cancer cell lines at a single dose of 10 μM. The human cancer cell lines were derived from 9 variant cancer types including leukemia, melanoma, lung, colon, CNS, ovarian, renal, prostate and breast cancers. The results are presented as percentage of growth inhibition (GI%) of the screened compounds against the full panel of cell lines.
# Under sterile conditions, the cell lines were grown in RPMI 1640 media (Gibco, NY, USA) supplemented with 10% fetal bovine serum (Biocell, CA, USA), and […] cell/mL was used to test the growth inhibition activity of the synthesized compounds. The compounds with concentrations ranging from 0.01 to 100 μM were prepared in phosphate buffer saline. Each compound was initially solubilized in dimethyl sulfoxide (DMSO); however, each final dilution contained less than 1% DMSO. Solutions of different concentrations (0.2 mL) were pipetted into the separate well of a microtiter tray in duplicate. Cell culture (1.8 mL) containing a cell population of […] cells per mL was pipetted into each well. Controls, containing only phosphate buffer saline and DMSO at identical dilutions, were also prepared in the same manner. These cultures were incubated in a humidified incubator at 37 °C. The incubator was supplied with 5% CO2 atmosphere. After 48 h, the cells in each well were diluted 10 times with saline and counted using a Coulter counter. The counts were corrected for the dilution.[34]
# in vitro = settings: human
# NCI-H522 = assay: NCI 60 five dose assay, Non-small cell lung cancer; assay type: cell-based, human
# [1] = Homo sapiens, read-out: LC50 (the source's name)
smiles,measurement,setting,value
"CC(=NNc1ccc(S(N)(=O)=O)cc1)c1ccc(NN=C2C(=O)NN=C2Nc2ccccc2)cc1 [Compound 4, 4-(2-(1-(4-(2-(5-oxo-3-(phenylamino)-1,5-dihydro-4H-pyrazol-4-ylidene)hydrazinyl)phenyl)ethylidene)hydrazinyl)benzene sulfonamide]",GI50,MCF7; Homo sapiens,2.4 µM
same,CC50,MCF7; [1],27.4 µM
same,Percent Growth,MCF7; Log10 Concentration -4.0 Molar,-97%
same,Percent Growth,MCF7; Log10 Concentration -5.0 Molar,-14%
same,Percent Growth,MCF7; Log10 Concentration -6.0 Molar,89%
same,Percent Growth,MCF7; Log10 Concentration -7.0 Molar,93%
same,Percent Growth,MCF7; Log10 Concentration -8.0 Molar,93%
same,percentage enzyme activity,CDK2/cyclin A2; at 50 μM,24.7%
same,IC50,"CDK2/cyclin A2; n = 3, read-out: IC50 against CDK2/cyclin A2",3.82 µM
same,Relative activity,"CDK2/cyclin A2; supplement S1, DMSO = 100, screen at 50 μM",24.7
same,GI50,UACC-62; Homo sapiens,1.96 µM
same,CC50,UACC-62; [1],9.6 µM
same,Percent Growth,UACC-62; Log10 Concentration -4.0 Molar,-93%
same,Percent Growth,UACC-62; Log10 Concentration -5.0 Molar,-53%
same,Percent Growth,UACC-62; Log10 Concentration -6.0 Molar,92%
same,Percent Growth,UACC-62; Log10 Concentration -7.0 Molar,93%
same,Percent Growth,UACC-62; Log10 Concentration -8.0 Molar,89%
same,GI50,RPMI-8226; Homo sapiens,3.36 µM
same,CC50,RPMI-8226; [1],> 100 µM
same,Percent Growth,RPMI-8226; Log10 Concentration -4.0 Molar,-15%
same,Percent Growth,RPMI-8226; Log10 Concentration -5.0 Molar,12%
same,Percent Growth,RPMI-8226; Log10 Concentration -6.0 Molar,92%
same,Percent Growth,RPMI-8226; Log10 Concentration -7.0 Molar,101%
same,Percent Growth,RPMI-8226; Log10 Concentration -8.0 Molar,101%
same,GI50,HOP-92; Homo sapiens,1.3 µM
same,CC50,HOP-92; [1],30.7 µM
same,Percent Growth,HOP-92; Log10 Concentration -4.0 Molar,-89%
same,Percent Growth,HOP-92; Log10 Concentration -5.0 Molar,-13%
same,Percent Growth,HOP-92; Log10 Concentration -6.0 Molar,58%
same,Percent Growth,HOP-92; Log10 Concentration -7.0 Molar,81%
same,Percent Growth,HOP-92; Log10 Concentration -8.0 Molar,74%
same,GI50,MDA-MB-231/ATCC; Homo sapiens,2 µM
same,CC50,MDA-MB-231/ATCC; [1],8.28 µM
same,Percent Growth,MDA-MB-231/ATCC; Log10 Concentration -4.0 Molar,-100%
same,Percent Growth,MDA-MB-231/ATCC; Log10 Concentration -5.0 Molar,-63%
same,Percent Growth,MDA-MB-231/ATCC; Log10 Concentration -6.0 Molar,99%
same,Percent Growth,MDA-MB-231/ATCC; Log10 Concentration -7.0 Molar,99%
same,Percent Growth,MDA-MB-231/ATCC; Log10 Concentration -8.0 Molar,95%
same,GI50,NCI-H460; Homo sapiens,3.21 µM
same,CC50,NCI-H460; [1],45.3 µM
same,Percent Growth,NCI-H460; Log10 Concentration -4.0 Molar,-78%
same,Percent Growth,NCI-H460; Log10 Concentration -5.0 Molar,4%
same,Percent Growth,NCI-H460; Log10 Concentration -6.0 Molar,97%
same,Percent Growth,NCI-H460; Log10 Concentration -7.0 Molar,103%
same,Percent Growth,NCI-H460; Log10 Concentration -8.0 Molar,102%
same,GI50,SN12C; Homo sapiens,2.38 µM
same,CC50,SN12C; [1],23.5 µM
same,Percent Growth,SN12C; Log10 Concentration -4.0 Molar,-100%
same,Percent Growth,SN12C; Log10 Concentration -5.0 Molar,-21%
same,Percent Growth,SN12C; Log10 Concentration -6.0 Molar,93%
same,Percent Growth,SN12C; Log10 Concentration -7.0 Molar,92%
same,Percent Growth,SN12C; Log10 Concentration -8.0 Molar,95%
same,GI50,CCRF-CEM; Homo sapiens,2.63 µM
same,CC50,CCRF-CEM; [1],> 100 µM
same,Percent Growth,CCRF-CEM; Log10 Concentration -4.0 Molar,-31%
same,Percent Growth,CCRF-CEM; Log10 Concentration -5.0 Molar,-5%
same,Percent Growth,CCRF-CEM; Log10 Concentration -6.0 Molar,90%
same,Percent Growth,CCRF-CEM; Log10 Concentration -7.0 Molar,100%
same,Percent Growth,CCRF-CEM; Log10 Concentration -8.0 Molar,98%
same,GI50,SK-MEL-2; Homo sapiens,2.11 µM
same,CC50,SK-MEL-2; [1],9.1 µM
same,Percent Growth,SK-MEL-2; Log10 Concentration -4.0 Molar,-96%
same,Percent Growth,SK-MEL-2; Log10 Concentration -5.0 Molar,-56%
same,Percent Growth,SK-MEL-2; Log10 Concentration -6.0 Molar,101%
same,Percent Growth,SK-MEL-2; Log10 Concentration -7.0 Molar,104%
same,Percent Growth,SK-MEL-2; Log10 Concentration -8.0 Molar,98%
same,GI50,NCI-H23; Homo sapiens,2.54 µM
same,CC50,NCI-H23; [1],23.1 µM
same,Percent Growth,NCI-H23; Log10 Concentration -4.0 Molar,-98%
same,Percent Growth,NCI-H23; Log10 Concentration -5.0 Molar,-23%
same,Percent Growth,NCI-H23; Log10 Concentration -6.0 Molar,99%
same,Percent Growth,NCI-H23; Log10 Concentration -7.0 Molar,105%
same,Percent Growth,NCI-H23; Log10 Concentration -8.0 Molar,105%
same,GI%,UACC-257,94.37%
same,IC50,in vitro,41.2 µM
same,GI50,NCI-H522; Homo sapiens,2.17 µM
same,CC50,NCI-H522; [1],74.8 µM
same,Percent Growth,NCI-H522; Log10 Concentration -4.0 Molar,-52%
same,Percent Growth,NCI-H522; Log10 Concentration -5.0 Molar,-36%
same,Percent Growth,NCI-H522; Log10 Concentration -6.0 Molar,94%
same,Percent Growth,NCI-H522; Log10 Concentration -7.0 Molar,97%
same,Percent Growth,NCI-H522; Log10 Concentration -8.0 Molar,89%
